*1 amine or outer side, *2 acyl side, *3 side chain or, on linkers, in order; H or OH if unused. Where a SMILES comes first, the peptide text is derived from it. The star is where a group is joined. Fluorescein(5-Mal) = O=C1OC2(c3ccc(O)cc3Oc3cc(O)ccc32)c2ccc(N3C(=O)CC(*)C3=O)cc21; X1 = N#C[C@@H]1CC(F)(F)CN1C(=O)CNC(=O)c1ccnc2c(N*)cccc12; Suc = O=C(CCC(=O)[*:2])[*:1]
Tests used:
[1] = tested on: HT-1080.hFAP; experiment: Confocal microscopy on HT-1080.hFAP; type: cell-based; conditions: t=0 and 1 h
Description: (§1) HT-1080.hFAP and HT-1080 cells were seeded into 4-well cover slip chamber plates at a density of 10^4 cells per well in DMEM medium (1 mL) supplemented with 10% FCS, AA and HEPES (10 mM) and allowed to grow for 24 hours under standard culture conditions. Hoechst 33342 nuclear dye was used to stain nuclear structures.
(§2) The culture medium was replaced with fresh medium containing conjugate 15 (100 nM). Randomly selected colonies imaged on a SP8 confocal microscope equipped with an AOBS device (Leica Microsystems).

[2] = tested on: HT-1080 Wild type; experiment: Confocal microscopy on HT-1080 wild type; type: cell-based; conditions: negative control cells
Description: as §1, §2

[3] = molecular target: T1, murine FAP (Mus musculus, UniProt P97321); experiment: Affinity measurement to murine FAP by fluorescence polarization; type: binding; conditions: binder 10 nM, read-out: KD to mFAP
T1 sequence (P97321 1-761): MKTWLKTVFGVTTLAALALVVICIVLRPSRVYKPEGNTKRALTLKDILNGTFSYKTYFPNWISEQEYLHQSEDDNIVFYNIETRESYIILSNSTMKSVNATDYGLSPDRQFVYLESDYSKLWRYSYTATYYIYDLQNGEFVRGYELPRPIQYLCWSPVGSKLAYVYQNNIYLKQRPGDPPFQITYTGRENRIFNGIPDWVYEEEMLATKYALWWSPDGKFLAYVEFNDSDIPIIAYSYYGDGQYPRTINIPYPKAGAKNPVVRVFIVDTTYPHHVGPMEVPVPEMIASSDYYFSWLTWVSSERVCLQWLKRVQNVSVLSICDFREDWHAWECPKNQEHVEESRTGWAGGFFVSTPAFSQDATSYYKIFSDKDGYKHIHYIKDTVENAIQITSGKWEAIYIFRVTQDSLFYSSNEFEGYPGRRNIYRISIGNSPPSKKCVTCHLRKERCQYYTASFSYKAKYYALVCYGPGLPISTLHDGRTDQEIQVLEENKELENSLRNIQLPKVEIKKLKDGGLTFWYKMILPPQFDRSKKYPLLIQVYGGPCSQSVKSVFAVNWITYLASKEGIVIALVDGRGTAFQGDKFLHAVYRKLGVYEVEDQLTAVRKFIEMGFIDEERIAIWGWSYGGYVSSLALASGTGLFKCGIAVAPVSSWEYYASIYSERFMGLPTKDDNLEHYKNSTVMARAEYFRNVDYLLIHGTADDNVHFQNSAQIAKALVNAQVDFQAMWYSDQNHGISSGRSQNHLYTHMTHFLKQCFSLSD
Description: Fluorescence polarization experiments were performed in 384-well plates (non-binding, ps, f-bottom, black, high volume, 30 μL final volume). Stock solutions of human FAP (4 μM) and murine FAP (5 μM) were serially diluted with buffer (50 mM Tris, 100 mM NaCl, 1 mM EDTA, pH=7.4), while the final concentration of the binders was kept constant at 10 nM. The fluorescence anisotropy was measured on a TECAN microtiter plate reader. Experiments were performed in triplicate and the mean anisotropy values fitted using Prism 7.

[4] = molecular target: T2, mFAP (Mus musculus, UniProt P97321); experiment: Chromatographic co-elution (PD-10) of ligand-protein complexes, mFAP; type: binding, murine; conditions: PD-10 column, mFAP 5 μM
T2 sequence (P97321 1-761): T1 sequence (P97321 1-761)
Description: A PD-10 column was pre-equilibrated with assay buffer (50 mM Tris, 100 mM NaCl, 1 mM EDTA, pH=7.4) prior to the loading of the complex. A mixture of different proteins (hFAP=2 μM, mFAP=5 μM) and conjugate 15 (100 nM) were incubated and loaded on the column. The mixture was flushed using the assay buffer. The flow through was collected in 96-well plates and the fluorescence intensity was measured immediately on a TECAN microtiter plate reader, monitoring the fluorescence at an excitation wavelength of 485 nm and an emission wavelength of 535 nm. The concentration of the proteins was estimated by measuring the absorbance at 280 nm using a Nanodrop 2000/2000c spectrophotometer.

[5] = tested on: SK-RC-52.hFAP; experiment: FACS analysis on SK-RC-52 wild type and SK-RC-52.hFAP; type: cell-based; conditions: 10 nM
Description: SK-RC-52.hFAP, SK-RC-52.wt, HT-1080.wt and HT-1080.hFAP were detached from culture plates using Accutase, counted and suspended to a final concentration of 1.5×10^6 cells/mL in a 1% v/v solution of FCS in PBS pH 7.4. […] Cells were washed once with 200 μL 1% v/v solution of FCS in PBS pH 7.4 (200 μL), spun down, resuspended in a 1% v/v solution of FCS in PBS pH 7.4 (300 μL) and analyzed on a CytoFLEX cytometer (Beckman Coulter). The raw data were processed with the FlowJo 10.4 software.

[6] = tested on: SK-RC-52.hFAP; experiment: Confocal microscopy on SK-RC-52.hFAP; type: cell-based; conditions: t=0 and 1 h
Description: as §1, with “SK-RC-52.hFAP” for “HT-1080.hFAP”, “SK-RC-52” for “HT-1080”, “RPMI” for “DMEM”
as §2

N#C[C@@H]1CC(F)(F)CN1C(=O)CNC(=O)c1ccnc2c(NC(=O)CCC(=O)N[C@@H](CC(=O)O)C(=O)N[C@@H](CCCCN)C(=O)N[C@@H](CC(=O)O)C(=O)N[C@@H](CSC3CC(=O)N(c4ccc5c(c4)C(=O)OC54c5ccc(O)cc5Oc5cc(O)ccc54)C3=O)C(=O)O)cccc12 (stereo partly drawn) [Conjugate 15, (2R,5S,8S,11S)-8-(4-aminobutyl)-5,11-bis(carboxymethyl)-16-((4-((2-((S)-2-cyano-4,4-difluoropyrrolidin-1-yl)-2-oxoethyl)carbamoyl)quinolin-8-yl)amino)-2-(((1-(3′,6′-dihydroxy-3-oxo-3H-spiro[isobenzofuran-1,9′-xanthen]-5-yl)-2,5-dioxopyrrolidin-3-yl)thio)methyl)-4,7,10,13,16-pentaoxo-3,6,9,12-tetraazahexadecanoic acid] ({X1-Suc}-DKDC(Fluorescein(5-Mal))-OH)
accumulation on HT-1080.hFAP cells [1]: accumulation of conjugate 15 on the cell membrane and inside the cytosol
accumulation on HT-1080 Wild type cells [2]: no accumulation on the cell membrane and in the cytosol
Kd [3]: 11.6 nM
complex formation with mFAP in PD-10 co-elution [4]: stable complex is formed
cellular binding, SK-RC-52 Wild type vs SK-RC-52.hFAP [5]: FAP-specific cellular binding
accumulation on SK-RC-52.hFAP cells [6]: accumulation of conjugate 15 on the cell membrane

Reference: patent publication US20230147962A1, “FIBROBLAST ACTIVATION PROTEIN LIGANDS FOR TARGETED DELIVERY APPLICATIONS” (PHILOCHEM AG, priority 2020, published 2023)
